Numbers after ± are expanded uncertainties.
Columns and labels:
[1] = 101.33 kPa, Liquid; for speed of sound: Pulse-echo method; for mass density: Vibrating tube method
[2] = refractive index (Na D-line) (dimensionless); settings: 101.33 kPa, Liquid, Standard Abbe refractometry

speed of sound ([1]; 278.15 K) [m/s] | mass density ([1]; 278.15 K) [kg/m3] | speed of sound ([1]; 288.15 K) [m/s] | mass density ([1]; 288.15 K) [kg/m3] | speed of sound ([1]; 298.15 K) [m/s] | mass density ([1]; 298.15 K) [kg/m3] | speed of sound ([1]; 308.15 K) [m/s] | mass density ([1]; 308.15 K) [kg/m3] | speed of sound ([1]; 318.15 K) [m/s] | mass density ([1]; 318.15 K) [kg/m3] | speed of sound ([1]; 328.15 K) [m/s] | mass density ([1]; 328.15 K) [kg/m3] | SMILES | refractive index ([2]; 288.15 K) | refractive index ([2]; 298.15 K) | refractive index ([2]; 308.15 K) | refractive index ([2]; 318.15 K) | refractive index ([2]; 328.15 K)
1243.5 ± 0.81 | 953.04 ± 0.09 | 1196.8 ± 0.8 | 940.12 ± 0.1 | 1150.7 ± 0.78 | 927.01 ± 0.1 | 1104.7 ± 0.77 | 913.68 ± 0.11 | 1059.2 ± 0.75 | 900.13 ± 0.11 | – | – | COC(C)=O [methyl ethanoate] | 1.36414 ± 0.00033 | 1.35881 ± 0.00033 | 1.35367 ± 0.00033 | 1.34823 ± 0.00033 | –
– | – | – | – | – | – | – | – | – | – | – | – | CCn1cc[n+](C)c1.O=S(=O)([O-])C(F)(F)F [1-ethyl-3-methylimidazolium trifluoromethanesulfonate] | 1.43599 ± 0.00051 | 1.4332 ± 0.00051 | 1.4304 ± 0.00051 | 1.42767 ± 0.00051 | 1.42494 ± 0.00051
1231 ± 1.2 | 918.5 ± 0.23 | 1185.2 ± 1.2 | 906.48 ± 0.23 | 1140 ± 1.2 | 894.33 ± 0.23 | 1095.3 ± 1.2 | 882.02 ± 0.23 | 1051 ± 1.1 | 869.52 ± 0.23 | 1007.4 ± 1.1 | 856.85 ± 0.23 | CCOC(C)=O [ethyl acetate] | 1.37519 ± 0.00037 | 1.36994 ± 0.00037 | 1.3646 ± 0.00037 | 1.35919 ± 0.00037 | 1.35368 ± 0.00037

SMILES | speed of sound ([1]; 278.15 K) [m/s] | mass density ([1]; 278.15 K) [kg/m3] | speed of sound ([1]; 288.15 K) [m/s] | mass density ([1]; 288.15 K) [kg/m3] | speed of sound ([1]; 298.15 K) [m/s] | mass density ([1]; 298.15 K) [kg/m3] | speed of sound ([1]; 308.15 K) [m/s] | mass density ([1]; 308.15 K) [kg/m3] | speed of sound ([1]; 318.15 K) [m/s] | mass density ([1]; 318.15 K) [kg/m3] | speed of sound ([1]; 328.15 K) [m/s] | mass density ([1]; 328.15 K) [kg/m3] | refractive index ([2]; 288.15 K) | refractive index ([2]; 298.15 K) | refractive index ([2]; 308.15 K) | refractive index ([2]; 318.15 K) | refractive index ([2]; 328.15 K)
CC(C)=O [acetone] | 1256.5 ± 1.2 | 807.41 ± 0.24 | 1210.7 ± 1.2 | 796.14 ± 0.24 | 1165 ± 1.2 | 784.76 ± 0.24 | 1118.5 ± 1.2 | 773.21 ± 0.24 | 1073.7 ± 1.1 | 761.47 ± 0.24 | – | – | 1.36146 ± 0.001 | 1.35597 ± 0.001 | 1.35054 ± 0.001 | 1.34491 ± 0.001 | –

From the NIST ThermoML archive (doi:10.1021/je9005618)
